Where two headings read alike, the source gives them in different places.
Tests used:
[1] = system: serotonin (central symptoms, convulsions, elicited with serotonin or tryptamine); assay: combined APO, TRY, NOR test in rats: tryptamine (TRY) convulsions; format: in vivo; details: Rattus norvegicus, read-out: TRY convulsions ED50
[2] = system: dopamine (symptoms elicited with the dopamine agonist apomorphine); assay: combined apomorphine (APO), tryptamine (TRY) and norepinephrine (NOR) test in rats: apomorphine (APO); format: in vivo; details: Rattus norvegicus, read-out: APO ED50
[3] = system: norepinephrine (death upon administration of the α2 -agonist norepinephrine); assay: animal or person; format: in vivo, rats; details: Rattus norvegicus, read-out: NOR ED50
[4] = system: serotonin (peripheral symptoms, hyperaemia, elicited with serotonin or tryptamine); assay: combined APO, TRY, NOR test in rats: tryptamine (TRY) hyperaemia; format: in vivo; details: Rattus norvegicus
[5] = combined test in rats, tryptamine, central (convulsions)
[6] = combined test in rats, apomorphine

Structure (SMILES): C#CCOc1cccn2c(=O)c(CCN3CCC(c4noc5cc(F)ccc45)CC3)c(C)nc12 [Compound 6, 3-[2-[4-(6-fluoro-1,2-benzisoxazol-3-yl)-1-piperidinyl]ethyl]-2-methyl-9-(2-propynyloxy)-4H-pyrido[1,2-a]pyrimidin-4-one]
- ED50 [1, 5]: < 0.63 mg/kg
- ED50 [2, 6]: < 0.63 mg/kg
- ED50 [3]: < 0.63 mg/kg

Structure (SMILES): CCCCCCCCCCCCOc1cccn2c(=O)c(CCN3CCC(c4noc5cc(F)ccc45)CC3)c(C)nc12 [Compound 3]
- ED50 [1, 5]: > 10 mg/kg
- ED50 [2, 6]: > 10 mg/kg
- ED50 [4]: 1.25 mg/kg

Structure (SMILES): COc1cccn2c(=O)c(CCN3CCC(c4noc5cc(F)ccc45)CC3)c(C)nc12 [Compound 1, 3-[2-[4-(6-fluoro-1,2-benzisoxazol-3-yl)-1-piperidinyl]ethyl]-9-methoxy-2-methyl-4H-pyrido[1,2-a]pyrimidin-4-one]
- ED50 [1, 5]: 0.16 mg/kg
- ED50 [2, 6]: 0.31 mg/kg
- ED50 [4]: 0.0025 mg/kg

Structure (SMILES): COCCOC1CCCn2c1nc(C)c(CCN1CCC(c3noc4cc(F)ccc34)CC1)c2=O (stereo not drawn) [Compound 11]
- ED50 [1, 5]: 0.63 mg/kg
- ED50 [2, 6]: 0.31 mg/kg
- ED50 [4]: 0.00125 mg/kg
- ED50 [3]: 1.25 mg/kg

Structure (SMILES): C=CCOc1cccn2c(=O)c(CCN3CCC(c4noc5cc(F)ccc45)CC3)c(C)nc12 [Compound 4, 3-[2-[4-(6-fluoro-1,2-benzisoxazol-3yl)-1-piperidinyl]ethyl]-2-methyl-9-(2-propenyloxy)-4H-pyrido[1,2-a]pyrimidin-4-one]
- ED50 [1, 5]: 0.31 mg/kg
- ED50 [2, 6]: 0.31 mg/kg
- ED50 [4]: 0.005 mg/kg
- ED50 [3]: 0.16 mg/kg

Structure (SMILES): CCCOC1CCCn2c1nc(C)c(CCN1CCC(c3noc4cc(F)ccc34)CC1)c2=O (stereo not drawn) [Compound 10, 3-[2-[4-(6-fluoro-1,2-benzisoxazol-3-yl)-1-piperidinyl]ethyl]-6,7,8,9-tetrahydro-2-methyl-9-propoxy-4H-pyrido[1,2-a]pyrimidin-4-one]
- ED50 [1, 5]: 0.08 mg/kg
- ED50 [2, 6]: 0.08 mg/kg
- ED50 [4]: 0.002 mg/kg
- ED50 [3]: 0.16 mg/kg

Structure (SMILES): CCOCOC1CCCn2c1nc(C)c(CCN1CCC(c3noc4cc(F)ccc34)CC1)c2=O (stereo not drawn) [Compound 8]
- ED50 [1, 5]: 0.16 mg/kg
- ED50 [2, 6]: 0.31 mg/kg
- ED50 [4]: 0.00125 mg/kg

Structure (SMILES): CCOCOc1cccn2c(=O)c(CCN3CCC(c4noc5cc(F)ccc45)CC3)c(C)nc12 [Compound 2, 9-(ethoxymethoxy)-3-[2-[4-(6-fluoro-1,2-benzisoxazol-3-yl)-1-piperidinyl]ethyl]-2-methyl-4H-pyrido[1,2-a]pyrimidin-4-one]
- ED50 [1]: 1.25 mg/kg
- ED50 [2]: 1.25 mg/kg
- ED50 [4]: 0.01 mg/kg
- ED50 [3]: 1.25 mg/kg

Structure (SMILES): Cc1nc2c(OCCCC#N)cccn2c(=O)c1CCN1CCC(c2noc3cc(F)ccc23)CC1 [Compound 5]
- ED50 [1]: 1.25 mg/kg
- ED50 [2]: 1.25 mg/kg
- ED50 [4]: 0.005 mg/kg
- ED50 [3]: 1.25 mg/kg

Structure (SMILES): COC1CCCn2c1nc(C)c(CCN1CCC(c3noc4cc(F)ccc34)CC1)c2=O (racemic) [Compound 7, (±)-3-[2-[4-(6-fluoro-1,2-benzisoxazol-3-yl)-1-piperidinyl]ethyl]-6,7,8,9-tetrahydro-9-methoxy-2-methyl-4H-pyrido[1,2-a]pyrimidin-4-one]
- ED50 [1, 5]: 0.02 mg/kg
- ED50 [2, 6]: 0.02 mg/kg
- ED50 [4]: 0.00125 mg/kg

Structure (SMILES): CCCCCCCCCCCCOC1CCCn2c1nc(C)c(CCN1CCC(c3noc4cc(F)ccc34)CC1)c2=O (stereo not drawn) [Compound 9]
- ED50 [1, 5]: 1.25 mg/kg
- ED50 [2, 6]: 10 mg/kg
- ED50 [4]: 0.01 mg/kg
- ED50 [3]: 2.5 mg/kg

From US5688799A, “9-Hydroxy-pyrido[1,2-a]pyrimidin-4-one ether derivatives” (Janssen Pharmaceutica N.V., priority 1993, dated 1997)
